Columns and labels:
[1] = tested on: mustard; assay: Test F preemergence test; format: in vivo, Brassica nigra; conditions: scale 0 to 100
Text: (§1) Seeds of plant species selected from bermudagrass (Cynodon dactylon), Surinam grass (Brachiaria decumbens), large crabgrass (Digitaria sanguinalis), green foxtail (Setaria viridis), goosegrass (Eleusine indica), johnsongrass (Sorghum halepense), kochia (Kochia scoparia), pitted morningglory (Ipomoea lacunosa), purple nutsedge (Cyperus rotundus), common ragweed (Ambrosia elation), mustard (Brassica nigra), guineagrass (Panicum maximum), […] (Paspalum dilatatum), barnyardgrass (Echinochloa crus-galli), southern sandbur (Cenchrus echinatus), common sowthistle (Sonchus oleraceous), prickly […] spinosa), Italian ryegrass (Lolium multiflorum), common purslane (Portulaca oleracea), broadleaf signalgrass (Brachiaria platyphylla), common groundsel (Senecio vulgaris), common chickweed (Stellaria media), Virginia dayflower (Commelina virginica), annual bluegrass (Poa annua), naked crabgrass (Digitaria nuda), […] cochinchinensis), quackgrass (Elytrigia repens), Canada horseweed (Conyza canadensis), field bindweed (Convolvulus arvensis), […] (Bidens bipinnata), common mallow (Malva sylvestris), Russian thistle (Salsola kali), and sugarcane (Saccharum officinarum) were planted and treated preemergence with test chemicals formulated in a non-phytotoxic solvent mixture which included a surfactant. At a different time, sugarcane was treated with postemergence applications of some of the test chemicals formulated in the same manner. Plants were approximately 3- to 4-leaf stage for the postemergence treatments. Treated plants and controls were maintained in a greenhouse for 14 to 21 days, after which time all species were compared to controls and visually evaluated. […] A dash (-) response means no test result.

[2] = tested on: dallisgrass; assay: Test F preemergence test; format: in vivo, Paspalum dilatatum; conditions: scale 0 to 100
Text: as §1

[3] = tested on: quackgrass; assay: Test F preemergence test; format: in vivo, Elytrigia repens; conditions: scale 0 to 100
Text: as §1

[4] = tested on: crabgrass; assay: Test C pre-/postemergence test; format: in vivo, Digitaria sanguinalis; conditions: for Plant response rating, Crabgrass, Large: 31 g ai/ha, scale 0 to 100 (0 no effect, 100 complete control)
Procedure, shortened: (§2)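 Seeds were planted and treated preemergence with test chemical in a non-phytotoxic solvent mixture containing surfactant. Postemergence applications of the same formulation went onto plants 2 to 18 cm tall (1- to 4-leaf stage). A dash marks no test result.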

[5] = tested on: umbrella sedge; assay: Test C flooded paddy test; format: in vivo, Cyperus difformis; conditions: Flood
Procedure, shortened: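 Visual injury ratings against untreated controls, taken 13 to 15 days after compound was added to paddy water standing 3 cm above the soil.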

[6] = tested on: kochia; assay: Test F preemergence test; format: in vivo, Kochia scoparia; conditions: scale 0 to 100
Text: as §1

[7] = tested on: wheat; assay: Test A pre-/postemergence greenhouse test; format: in vivo, Triticum aestivum; conditions: for Wheat plant response rating: 0 to 100 scale; for Plant response rating, Wheat: 0 to 100 scale where 0 is no effect and 100 is complete control
Procedure, shortened: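 Greenhouse herbicide screen, pre- and postemergence in parallel. Soil: loam plus sand. Formulation: non-phytotoxic solvent mix with surfactant. Postemergence stage: one to two leaves, 2–10 cm height. Evaluation: visual injury, compared with untreated controls, about 10 days after treatment.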

[8] = tested on: annual bluegrass; assay: Test F preemergence test; format: in vivo, Poa annua; conditions: scale 0 to 100
Text: as §1

[9] = tested on: Goosegrass; assay: Test C pre-/postemergence test; format: in vivo, Eleusin indica; conditions: for Plant response rating, Goosegrass: 31 g ai/ha, scale 0 to 100 (0 no effect, 100 complete control)
Procedure, shortened: as §2

[10] = tested on: common mallow; assay: Test F preemergence test; format: in vivo, Malva sylvestris; conditions: scale 0 to 100
Text: as §1

[11] = tested on: green foxtail; assay: Test F preemergence test; format: in vivo, Setaria viridis; conditions: scale 0 to 100
Text: as §1

[12] = tested on: common groundsel; assay: Test F preemergence test; format: in vivo, Senecio vulgaris; conditions: scale 0 to 100
Text: as §1

[13] = 62 g ai/ha, Preemergence, scale 0 to 100
[14] = 250 g ai/ha, scale 0 to 100, 0 no effect, 100 complete control, 13 to 15 days
[15] = Postemergence, 500 g ai/ha, 0 is no effect, 100 is complete control
[16] = Preemergence, 125 g ai/ha, 0 no effect, 100 complete control
[17] = 125 g ai/ha, preemergence, scale 0 (no effect) to 100 (complete control)
[18] = preemergence, 250 g ai/ha, scale 0 (no effect) to 100 (complete control)

SMILES: Cn1nc(C(F)(F)F)c(CS(=O)(=O)c2cccc[n+]2[O-])c1OCC(F)(F)F [Compound 29]
- Black Mustard plant response rating ([1]; 62 g ai/ha, Preemergence): 100
- Black Mustard plant response rating ([1]; 125 g ai/ha, preemergence): 100
- Plant response rating, Black Mustard ([1]; Preemergence, 16 g ai/ha): 40
- Plant response rating, Black Mustard ([1]; Preemergence, 31 g ai/ha): 100
- Dallisgrass plant response rating ([2]; 62 g ai/ha, Preemergence): 100
- Dallisgrass plant response rating ([2]; 125 g ai/ha, preemergence): 100
- Plant response rating, Dallisgrass ([2]; Preemergence, 16 g ai/ha): 0
- Plant response rating, Dallisgrass ([2]; Preemergence, 31 g ai/ha): 100
- Quackgrass plant response rating ([3]; 62 g ai/ha, Preemergence): 95
- Quackgrass plant response rating ([3]; 125 g ai/ha, preemergence): 95
- Plant response rating, Quackgrass ([3]; Preemergence, 16 g ai/ha): 0
- Plant response rating, Quackgrass ([3]; Preemergence, 31 g ai/ha): 30
- Crabgrass, Large plant response rating [4, 13]: 100
- Plant response rating, Crabgrass, Large ([4]; Preemergence): 100
- Plant response rating (0 to 100), Crabgrass, Large ([4]; Preemergence, 250 g ai/ha): 100
- Plant response rating, Sedge, Umbrella ([5]; 31 g ai/ha, scale 0 to 100 (0 no effect, 100 complete control)): 80
- Plant response rating, Sedge, Umbrella ([5]; 62 g ai/ha, scale 0 to 100, 0 no effect, 100 complete control, 13 to 15 days): 90
- Plant response rating, Sedge, Umbrella ([5]; 125 g ai/ha, scale 0 to 100, 0 no effect, 100 complete control, 13 to 15 days): 90
- Plant response rating, Sedge, Umbrella [5, 14]: 95
- Kochia plant response rating ([6]; 62 g ai/ha, Preemergence): 100
- Kochia plant response rating ([6]; 125 g ai/ha, preemergence): 100
- Plant response rating, Kochia ([6]; Preemergence, 16 g ai/ha): 0
- Plant response rating, Kochia ([6]; Preemergence, 31 g ai/ha): 30
- Wheat plant response rating ([7]; Postemergence, 125 g ai/ha, 0 is no effect, 100 is complete control): 50
- Wheat plant response rating [7, 15]: 60
- Wheat plant response rating [7, 16]: 60
- Plant response rating, Wheat ([7]; Preemergence, 500 g ai/ha): 90
- Bluegrass plant response rating ([8]; 62 g ai/ha, Preemergence): 98
- Bluegrass plant response rating ([8]; 125 g ai/ha, preemergence): 100
- Plant response rating, Bluegrass ([8]; Preemergence, 16 g ai/ha): 20
- Plant response rating, Bluegrass ([8]; Preemergence, 31 g ai/ha): 75
- Goosegrass plant response rating [9, 13]: 100
- Plant response rating, Goosegrass ([9]; Preemergence): 100
- Plant response rating (0 to 100), Goosegrass ([9]; Preemergence, 250 g ai/ha): 100
- Mallow plant response rating ([10]; 62 g ai/ha, Preemergence): 100
- Mallow plant response rating ([10]; 125 g ai/ha, preemergence): 100
- Plant response rating, Mallow ([10]; Preemergence, 16 g ai/ha): 0
- Plant response rating, Mallow ([10]; Preemergence, 31 g ai/ha): 0
- Foxtail, Green plant response rating ([11]; 62 g ai/ha, Preemergence): 100
- Foxtail, Green plant response rating ([11]; 125 g ai/ha, preemergence): 100
- Plant response rating, Foxtail, Green ([11]; Preemergence, 16 g ai/ha): 25
- Plant response rating, Foxtail, Green ([11]; Preemergence, 31 g ai/ha): 75

SMILES: Cc1cc([S+]([O-])Cc2c(C(F)(F)F)nn(C)c2OCC(F)(F)F)[n+]([O-])cc1Cl (stereo not drawn) [Compound 70]
- Plant response rating, Black Mustard ([1]; 16 g ai/ha, preemergence): 90
- Black Mustard plant response rating ([1]; 62 g ai/ha, Preemergence): 100
- Black Mustard plant response rating ([1]; 125 g ai/ha, preemergence): 100
- Plant response rating, Black Mustard ([1]; Preemergence, 31 g ai/ha): 90
- Dallisgrass plant response rating ([2]; 62 g ai/ha, Preemergence): 75
- Dallisgrass plant response rating ([2]; 125 g ai/ha, preemergence): 98
- Plant response rating, Dallisgrass ([2]; Preemergence, 31 g ai/ha): 25
- Plant response rating, Quackgrass ([3]; 16 g ai/ha, preemergence): 75
- Quackgrass plant response rating ([3]; 62 g ai/ha, Preemergence): 95
- Quackgrass plant response rating ([3]; 125 g ai/ha, preemergence): 100
- Plant response rating, Quackgrass ([3]; Preemergence, 31 g ai/ha): 75
- Crabgrass, Large plant response rating [4, 13]: 100
- Crabgrass, Large plant response rating [4, 17]: 100
- Plant response rating, Crabgrass, Large ([4]; Preemergence): 85
- Crabgrass, Large plant response rating [4, 18]: 100
- Groundsel plant response rating ([12]; 62 g ai/ha, Preemergence): 98
- Groundsel plant response rating ([12]; 125 g ai/ha, preemergence): 100
- Plant response rating, Groundsel ([12]; Preemergence, 31 g ai/ha): 98
- Plant response rating, Sedge, Umbrella ([5]; 62 g ai/ha, scale 0 to 100 (0 no effect, 100 complete control)): 80
- Plant response rating, Sedge, Umbrella [5, 14]: 100
- Plant response rating, Kochia ([6]; 16 g ai/ha, preemergence): 95
- Kochia plant response rating ([6]; 62 g ai/ha, Preemergence): 100
- Kochia plant response rating ([6]; 125 g ai/ha, preemergence): 100
- Plant response rating, Kochia ([6]; Preemergence, 31 g ai/ha): 95
- Plant response rating, Wheat ([7]; Postemergence, 125 g ai/ha): 70
- Wheat plant response rating [7, 15]: 70
- Wheat plant response rating [7, 16]: 50
- Plant response rating, Wheat ([7]; Preemergence, 500 g ai/ha): 90
- Plant response rating, Bluegrass ([8]; 16 g ai/ha, preemergence): 65
- Bluegrass plant response rating ([8]; 62 g ai/ha, Preemergence): 95
- Bluegrass plant response rating ([8]; 125 g ai/ha, preemergence): 100
- Plant response rating, Bluegrass ([8]; Preemergence, 31 g ai/ha): 75
- Goosegrass plant response rating [9, 13]: 100
- Goosegrass plant response rating [9, 17]: 100
- Plant response rating, Goosegrass ([9]; Preemergence): 100
- Goosegrass plant response rating [9, 18]: 100
- Foxtail, Green plant response rating ([11]; 62 g ai/ha, Preemergence): 75
- Foxtail, Green plant response rating ([11]; 125 g ai/ha, preemergence): 90
- Plant response rating, Foxtail, Green ([11]; Preemergence, 31 g ai/ha): 65

Reference: patent US20100298141A1, “SUBSTITUTED PYRIDINE N-OXIDE HERBICIDES” (E. I. DU PONT DE NEMOURS AND COMPANY, priority 2007, published 2010)
